Article PMC8074287, “Analgesic and Anticancer Activity of Benzoxazole Clubbed 2-Pyrrolidinones as Novel Inhibitors of Monoacylglycerol Lipase” (Molecules, 2021)

Assays:
Experiment in all cases: NCI60 single-dose SRB assay
Assay type in all cases: cell-based, human
NCI-H460 = conditions: NCI-H460, Non-Small Cell Lung Cancer, 10 μM
Method: (§1) Compounds 19 and 20 were supplied to National Cancer Institute (USA), for sulforhodamine B (SRB) assay and anticancer screening. Single-dose (10 µM) assay results for compounds 19 and 20 were provided as a mean of percent growth (% G) and growth inhibition (% GI) against 60 cell lines of nine types of cancers and are tabulated in Table 4. […] Both the compounds 19 and 20 were also found active on UO-31 renal cancer cell line with % GI of 21.18 and 29.95, respectively.
(§2) Compounds 19 and 20 were supplied to National Cancer Institute (Bethesda, Maryland, USA), for in vitro sulforhodamine B (SRB) assay, anticancer screening on 60 cell lines of cancers of leukemia, melanoma, and tumors of the kidney, brain, breast, lung, colon, ovary, and prostate, as per their standard protocol. One dose anticancer results (NCI, USA) of compounds 19 and 20 are provided in the Supplementary Materials.

HCT-116 = conditions: HCT-116, Colon Cancer, 10 μM
Method: as §1, §2

HCT-15 = conditions: HCT-15, Colon Cancer, 10 μM
Method: as §1, §2

HOP-62 = conditions: HOP-62, Non-Small Cell Lung Cancer, 10 μM
Method: as §1, §2

K-562 = conditions: K-562, Leukemia, 10 μM
Method: as §1, §2

SK-MEL-5 = conditions: SK-MEL-5, Melanoma, 10 μM
Method: as §1, §2

SF-268 = conditions: SF-268, CNS Cancer, 10 μM
Method: as §1, §2

SK-MEL-28 = conditions: SK-MEL-28, Melanoma, 10 μM
Method: as §1, §2

HCC-2998 = conditions: HCC-2998, Colon Cancer, 10 μM
Method: as §1, §2

OVCAR-5 = conditions: OVCAR-5, Ovarian Cancer, 10 μM
Method: as §1, §2

KM12 = conditions: KM12, Colon Cancer, 10 μM
Method: as §1, §2

SNB-19 = conditions: SNB-19, CNS Cancer, 10 μM
Method: as §1, §2

DU-145 = conditions: DU-145, Prostate Cancer, 10 μM
Method: as §1, §2

ACHN = conditions: Renal Cancer, 10 μM
Method: as §1, §2

HL-60(TB) = conditions: Leukemia, 10 μM
Method: as §1, §2

SN12C = conditions: Renal Cancer, 10 μM
Method: as §1, §2

SK-MEL-2 = conditions: SK-MEL-2, Melanoma, 10 μM
Method: as §1, §2

NCI-H226 = conditions: NCI-H226, Non-Small Cell Lung Cancer, 10 μM
Method: as §1, §2

A498 = conditions: A498, Renal Cancer, 10 μM
Method: as §1, §2

HOP-92 = conditions: HOP-92, Non-Small Cell Lung Cancer, 10 μM
Method: as §1, §2

MOLT-4 = conditions: MOLT-4, Leukemia, 10 μM
Method: as §1, §2

CAKI-1 = conditions: CAKI-1, Renal Cancer, 10 μM
Method: as §1, §2

TK-10 = conditions: TK-10, Renal Cancer, 10 μM
Method: as §1, §2

CCRF-CEM = conditions: Leukemia, 10 μM
Method: as §1, §2

UO-31 = conditions: UO-31, Renal Cancer, 10 μM
Method: as §1, §2

HT29 = conditions: HT29, Colon Cancer, 10 μM
Method: as §1, §2

UACC-62 = conditions: UACC-62, Melanoma, 10 μM
Method: as §1, §2

LOX IMVI = conditions: Melanoma, 10 μM
Method: as §1, §2

IGROV1 = conditions: IGROV1, Ovarian Cancer, 10 μM
Method: as §1, §2

NCI-H23 = conditions: NCI-H23, Non-Small Cell Lung Cancer, 10 μM
Method: as §1, §2

SW-620 = conditions: SW-620, Colon Cancer, 10 μM
Method: as §1, §2

## NS(=O)(=O)c1ccc(N2CC(c3nc4ccccc4o3)CC2=O)cc1 (centres unmarked) [Compound 20, 4-(4-(Benzo[d]oxazol-2-yl)-2-oxopyrrolidin-1-yl)benzenesulfonamide]
NCI-H460
  % G: 104.20%
  % GI: −4.20%
HCT-116
  % G: 95.78%
HCT-15
  % G: 101.16%
  % GI: −1.16%
HOP-62
  % G: 81.97%
  % GI: 18.03%
K-562
  % G: 98.83%
  % GI: 1.17%
SK-MEL-5
  % G: 98.82%
SF-268
  % G: 87.43%
  % GI: 12.57%
SK-MEL-28
  % G: 101.79%
  % GI: −1.79%
HCC-2998
  % G: 100.24%
  % GI: −0.24%
OVCAR-5
  % G: 92.08%
  % GI: 7.92%
KM12
  % G: 101.16%
  % GI: −1.16%
SNB-19
  % G: 97.02%
  % GI: 2.98%
DU-145
  % G: 111.62%
  % GI: −11.62%
ACHN
  % G: 89.48%
  % GI: 10.52%
HL-60(TB)
  % G: 96.15%
  % GI: 3.85%
SN12C
  % G: 95.50%
  % GI: 4.50%
SK-MEL-2
  % G: 111.54%
  % GI: −11.54%
NCI-H226
  % G: 92.75%
  % GI: 7.25%
A498
  % G: 113.94%
  % GI: −13.94%
HOP-92
  % G: 77.78%
  % GI: 22.22%
MOLT-4
  % G: 92.47%
  % GI: 7.53%
CAKI-1
  % G: 92.35%
  % GI: 7.65%
TK-10
  % G: 114.82%
  % GI: −14.82%
CCRF-CEM
  % G: 94.48%
  % GI: 5.52%
UO-31
  % G: 70.05%
  % GI: 29.95%
HT29
  % G: 103.23%
  % GI: −3.23%
UACC-62
  % G: 92.78%
  % GI: 7.22%
LOX IMVI
  % G: 92.99%
  % GI: 7.01%
IGROV1
  % G: 101.63%
  % GI: −1.63%
NCI-H23
  % G: 92.19%
  % GI: 7.81%
SW-620
  % G: 102.95%
  % GI: −2.95%

## O=C1CC(c2nc3ccccc3o2)CN1c1ccc([N+](=O)[O-])cc1 (centres unmarked) [Compound 19, 4-(Benzo[d]oxazol-2-yl)-1-(4-nitrophenyl)pyrrolidin-2-one]
NCI-H460
  % G: 102.33%
  % GI: −2.33%
HCT-116
  % G: 102.14%
  % GI: −2.14%
HCT-15
  % G: 98.10%
  % GI: 1.9%
HOP-62
  % G: 85.04%
  % GI: 14.96%
K-562
  % G: 98.41%
  % GI: 1.59%
SK-MEL-5
  % G: 98.72%
  % GI: 1.28%
SF-268
  % G: 91.85%
  % GI: 8.15%
SK-MEL-28
  % G: 111.25%
  % GI: −11.25%
HCC-2998
  % G: 102.05%
  % GI: −2.05%
OVCAR-5
  % G: 98.30%
  % GI: 1.70%
KM12
  % G: 105.43%
  % GI: −5.43%
SNB-19
  % G: 99.29%
  % GI: 0.71%
DU-145
  % G: 110.09%
  % GI: −10.09%
ACHN
  % G: 91.70%
  % GI: 8.3%
HL-60(TB)
  % G: 100.09%
  % GI: −0.09%
SN12C
  % G: 97.21%
  % GI: 2.79%
SK-MEL-2
  % G: 102.31%
  % GI: −2.31%
NCI-H226
  % G: 98.63%
  % GI: 1.37%
A498
  % G: 113.46%
  % GI: −13.46%
HOP-92
  % G: 104.72%
  % GI: −4.72%
MOLT-4
  % G: 93.64%
  % GI: 6.36%
CAKI-1
  % G: 97.19%
  % GI: 2.81%
TK-10
  % G: 110.14%
  % GI: −10.14%
CCRF-CEM
  % G: 93.58%
  % GI: 6.42%
UO-31
  % G: 78.82%
  % GI: 21.18%
HT29
  % G: 99.25%
  % GI: 0.75%
UACC-62
  % G: 97.59%
  % GI: 2.41%
LOX IMVI
  % G: 89.06%
  % GI: 10.94%
IGROV1
  % G: 104.14%
  % GI: −4.14%
NCI-H23
  % G: 93.07%
  % GI: 6.93%
SW-620
  % G: 102.52%
  % GI: −2.52%
